Test results published in patent US10179791B2, “Spiro-cyclic amine derivatives as S1P modulators” (AbbVie B.V., priority 2010, dated 2019).
Where a name gives a salt, the structure may show the parent alone. Values belong to the compound of their own block, whether it stands above or below them.

Key:
Type in all cases: cell-based
human S1P5 receptor = human S1P5 receptor (Homo sapiens (Human), UniProt Q9H228); assay: In vitro functional activity (agonism) on human S1P5 receptors, CHO-human-S1P5-Aequorin assay; conditions: aequorin luminescence, CHO cells, 3 independent experiments
Excerpt: In Vitro Functional Activity (Agonism) on Human S1P5 Receptors
(§1) The CHO-human-S1P5-Aeqorin assay was bought from Euroscreen, Brussels (Euroscreen, Technical dossier, Human Lysophospholid S1P5 (Edg8) receptor, DNA clone and CHO AequoScreen™ recombinant cell-line, catalog no: ES-593-A, September 2006). Human-S1P5-Aequorin cells express mitochondrial targeted apo-Aequorin. Cells have to be loaded with coelanterazine, in order to reconstitute active Aequorin. After binding of agonists to the human S1P5 receptor the intracellular calcium concentration increases and binding of calcium to the apo-Aequorin/coelenterazine complex leads to an oxidation reaction of coelenterazine, which results in the production of apo-Aequorin, coelenteramide, CO2 and light ([…]max 469 nm). This luminescent response is dependent on the agonist concentration. Luminescence is measured using the MicroBeta Jet (Perkin Elmer). Agonistic effects of compounds are expressed as pEC50. Compounds were tested at a 10 points half log concentration range, and 3 independent experiments were performed in single point's measurements.

human S1P1 [1] = target: T1, human S1P1 (Homo sapiens (Human), UniProt P21453); assay: In vitro functional activity (agonism) on human S1P1 receptors (method B), CHO-K1-human S1P1-cAMP assay
Procedure: In Vitro Functional Activity (Agonism) on Human S1P1 Receptors (Method B)
Recombinant CHO-K1 cells expressing human S1P1, grown to mid-log Phase in culture media without antibiotics, detached, centrifuged and re-suspended. For agonist testing cells are mixed with compound and Forskolin and incubated at room temperature. Cells are lyses and cAMP concentration are estimated, according to the manufacturer specification, With the HTRF kit from CIS-BIO International (cat no 62AM2PEB).
Compounds were tested at a 10 points half log concentration range duplicated in 1 experiment.

human S1P3 receptor = human S1P3 receptor (Homo sapiens (Human), UniProt Q99500); assay: In vitro functional activity (agonism) on human S1P3 receptors, CHO-human-S1P3-Aequorin assay; conditions: aequorin luminescence, CHO K1 cells, 3 independent experiments, read-out: S1P3 pEC50 (converted)
Excerpt: In Vitro Functional Activity (Agonism) on Human S1P3 Receptors
The CHO-human-S1P3-Aeqorin assay (CHO/Gα16/AEQ/h-S1P3) was established at Solvay Pharmaceuticals. The plasmid DNA coding for the S1P3 receptor (accession number in GenBank NM_005226 was purchased from UMR cDNA resource Centre (Rolla, Mo.). The pcDNA3.1/hS1P3 construct carrying the mitochondrially targeted apo-Aeqorin and Gal6 protein was transfected in CHO K1 cell-line.
as §1, with “Human-S1P3-Aequorin” for “The CHO-human-S1P5-Aeqorin assay was bought from Euroscreen, Brussels (Euroscreen, Technical dossier, Human Lysophospholid S1P5 (Edg8) receptor, DNA clone and CHO AequoScreen™ recombinant cell-line, catalog no: ES-593-A, September 2006). Human-S1P5-Aequorin”, “S1P3” for “S1P5”

human S1P1 [2] = target: T1, human S1P1; assay: In vitro functional activity (agonism) on human S1P1 receptors (method A), CHO-K1-human-S1P1-Aequorin assay
Excerpt: In Vitro Functional Activity (Agonism) on Human S1P1 Receptors (Method A)
as §1, with “Human-S1P1-Aequorin” for “The CHO-human-S1P5-Aeqorin assay was bought from Euroscreen, Brussels (Euroscreen, Technical dossier, Human Lysophospholid S1P5 (Edg8) receptor, DNA clone and CHO AequoScreen™ recombinant cell-line, catalog no: ES-593-A, September 2006). Human-S1P5-Aequorin”, “S1P1” for “S1P5”, “2” for “3”

[3] = agonism, determined using method B (cAMP HTRF with Forskolin, CHO-K1 cells), read-out: S1P1^B pEC50 (converted)
[4] = agonism, determined using method A (aequorin luminescence, CHO-K1 cells), 2 independent experiments, read-out: S1P1^A pEC50 (converted)

T1 sequence (P21453 whole entry): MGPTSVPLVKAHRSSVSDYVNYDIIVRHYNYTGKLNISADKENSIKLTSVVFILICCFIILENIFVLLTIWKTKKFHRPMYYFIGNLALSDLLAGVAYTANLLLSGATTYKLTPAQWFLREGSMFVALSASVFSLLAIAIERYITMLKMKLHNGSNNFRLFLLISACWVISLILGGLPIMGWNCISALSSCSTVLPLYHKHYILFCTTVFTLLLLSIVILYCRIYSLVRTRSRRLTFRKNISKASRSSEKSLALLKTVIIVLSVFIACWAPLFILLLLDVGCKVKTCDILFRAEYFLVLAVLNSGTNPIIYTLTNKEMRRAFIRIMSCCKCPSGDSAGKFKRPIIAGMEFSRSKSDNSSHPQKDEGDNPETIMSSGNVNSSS
human S1P5 receptor, sequence (Q9H228 whole entry): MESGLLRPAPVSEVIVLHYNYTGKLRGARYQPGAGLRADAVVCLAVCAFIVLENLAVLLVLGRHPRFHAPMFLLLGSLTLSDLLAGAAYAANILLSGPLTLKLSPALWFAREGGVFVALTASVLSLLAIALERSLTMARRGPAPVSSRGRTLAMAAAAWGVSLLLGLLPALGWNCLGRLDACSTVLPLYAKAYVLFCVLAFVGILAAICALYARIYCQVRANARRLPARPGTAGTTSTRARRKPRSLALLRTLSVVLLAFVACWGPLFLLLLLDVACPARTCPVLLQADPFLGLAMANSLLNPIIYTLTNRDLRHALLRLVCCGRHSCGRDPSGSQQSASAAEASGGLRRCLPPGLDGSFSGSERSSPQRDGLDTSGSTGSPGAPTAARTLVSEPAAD
human S1P3 receptor, sequence (Q99500 whole entry): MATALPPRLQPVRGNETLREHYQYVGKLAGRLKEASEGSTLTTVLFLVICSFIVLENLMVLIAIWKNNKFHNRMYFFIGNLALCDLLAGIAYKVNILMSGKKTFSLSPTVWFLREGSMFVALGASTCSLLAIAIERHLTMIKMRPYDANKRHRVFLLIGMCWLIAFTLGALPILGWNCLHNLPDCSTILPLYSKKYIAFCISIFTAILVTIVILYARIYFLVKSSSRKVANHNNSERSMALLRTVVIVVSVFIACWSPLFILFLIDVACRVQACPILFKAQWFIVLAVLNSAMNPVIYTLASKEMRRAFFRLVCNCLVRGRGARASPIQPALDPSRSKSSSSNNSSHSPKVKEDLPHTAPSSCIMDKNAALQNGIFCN

SMILES: O=C(O)CCN1CCC2(CC1)COc1cc(/C=C/c3c(Cl)cccc3Cl)ccc12 [Compound 160, 3-{6-[(E)-2-(2,6-Dichlorophenyl)ethenyl]-2H-spiro[1-benzofuran-3,4′-piperidine]-1′-yl}propanoic acid hydrochloride]
S1P5 pEC50 (human S1P5 receptor): 7.7
EC50 (human S1P1 [1]; [3]): > 3.16 µM
EC50 (human S1P3 receptor): > 10 µM

SMILES: O=C(O)CCN1CCC2(CC1)COc1cc(Oc3c(Cl)cccc3Cl)ccc12 [Compound 248, 3-[6-(2,6-Dichlorophenoxy)-2H-spiro[1-benzofuran-3,4′-piperidine]-1′-yl]propanoic acid hydrochloride]
S1P5 pEC50 (human S1P5 receptor): 6.5
EC50 (human S1P1 [1]; [3]): > 3.16 µM
EC50 (human S1P3 receptor): > 10 µM

SMILES: CC(CN1CCC2(CC1)COc1cc(OCc3c(Cl)cccc3Cl)ccc12)C(=O)O (stereo not shown) [Compound 100, 3-{6-[(2,6-Dichlorophenyl)methoxy]-2H-spiro[1-benzofuran-3,4′-piperidine]-1′-yl}-2-methylpropanoic acid hydrochloride]
S1P5 pEC50 (human S1P5 receptor): 7
EC50 (human S1P1 [1]; [3]): > 3.16 µM
EC50 (human S1P3 receptor): > 10 µM

SMILES: CCc1ccc(Cl)c(COc2ccc3c(c2)OCC32CCN(CCC(=O)O)CC2)c1 [Compound 51, 3-{6-[(2-Chloro-5-ethylphenyl)methoxy]-2H-spiro[1-benzofuran-3,4′-piperidine]-1′-yl}propanoic acid hydrochloride]
S1P5 pEC50 (human S1P5 receptor): 6.6
EC50 (human S1P1 [1]; [3]): > 3.16 µM
EC50 (human S1P3 receptor): > 10 µM

SMILES: O=C(O)CCN1CCC2(CC1)COc1cc(OC3CCc4cc(Cl)cc(Cl)c43)ccc12 (stereo not shown) [Compound 79, 3-{6-[(5,7-Dichloro-2,3-dihydro-1H-inden-1-yl)oxy]-2H-spiro[1-benzofuran-3,4′-piperidine]-1′-yl}propanoic acid]
S1P5 pEC50 (human S1P5 receptor): 7.2
EC50 (human S1P1 [1]; [3]): 2 µM
EC50 (human S1P3 receptor): > 10 µM

SMILES: O=C(O)CCN1CCC2(CC1)COc1cc(OCc3c(F)cccc3Cl)ccc12 [Compound 38, 3-{6-[(2-Chloro-6-fluorphenyl)methoxy]-2H-spiro[1-benzofuran-3,4′-piperidine]-1′-yl}propanoic acid hydrochloride]
S1P5 pEC50 (human S1P5 receptor): 6.7
EC50 (human S1P1 [1]): > 3.16 µM
EC50 (human S1P3 receptor): > 10 µM

SMILES: Cc1c(OCc2c(Cl)cccc2Cl)ccc2c1OCC21CCN(CCC(=O)O)CC1 [Compound 129, 3-{6-[(2,6-Dichlorophenyl)methoxy]-7-methyl-2H-spiro[1-benzofuran-3,4′-piperidine]-1′-yl}propanoic acid hydrochloride]
S1P5 pEC50 (human S1P5 receptor): 7.5
EC50 (human S1P1 [1]; [3]): > 3.16 µM
EC50 (human S1P3 receptor): > 10 µM

SMILES: O=C(O)CCN1CCC2(CC1)COc1cc(C3CC3c3c(Cl)cccc3Cl)ccc12 (stereo not shown) [Compound 178, 3-{6-[2-(2,6-Dichlorophenyl)cyclopropyl]-2H-spiro[1-benzo-furan-3,4′-piperidine]-1′-yl}propanoic acid hydrochloride]
S1P5 pEC50 (human S1P5 receptor): 7.1
EC50 (human S1P1 [1]; [3]): > 3.16 µM
EC50 (human S1P3 receptor): 3.16 µM

SMILES: CC(C)c1cccc(Cl)c1COc1ccc2c(c1)OCC21CCN(CCC(=O)O)CC1 [Compound 74, 3-(6-{[2-Chloro-6-(propan-2-yl)phenyl]methoxy}-2H-spiro[1-benzofuran-3,4′-piperidine]-1′-yl)propanoic acid hydrochloride]
EC50 (human S1P1 [1]): > 3.16 µM

SMILES: CCc1ccc(Cl)c(COc2ccc3c(c2)OCC32CCN(CCC(=O)O)CC2)c1Cl [Compound 68, 3-{6-[(2,6-Dichloro-3-ethylphenyl)methoxy]-2H-spiro[1-benzofuran-3,4′-piperidine]-1′-yl}propanoic acid hydrochloride]
S1P5 pEC50 (human S1P5 receptor): 7.5
EC50 (human S1P1 [1]; [3]): > 3.16 µM
EC50 (human S1P3 receptor): > 10 µM

SMILES: Cc1cc(Cl)c(COc2ccc3c(c2)OCC32CCN(CCC(=O)O)CC2)c(Cl)c1 [Compound 59, 3-{6-[(2,6-Dichloro-4-methylphenyl)methoxy]-2H-spiro[1-benzofuran-3,4′-piperidine]-1′-yl)propanoic acid hydrochloride]
S1P5 pEC50 (human S1P5 receptor): 7.8
EC50 (human S1P1 [1]; [3]): > 3.16 µM
EC50 (human S1P3 receptor): > 10 µM

SMILES: CCc1ccc(Cl)c(C2CC2c2ccc3c(c2)OCC32CCN(CCC(=O)O)CC2)c1 (stereo not shown) [Compound 182, 3-{6-[2-(2-Chloro-5-ethylphenyl)cyclopropyl]-2H-spiro[1-benzofuran-3,4′-piperidine]-1′-yl}propanoic acid hydrochloride]
S1P5 pEC50 (human S1P5 receptor): 7.4
EC50 (human S1P1 [1]; [3]): > 3.16 µM
EC50 (human S1P3 receptor): > 10 µM

SMILES: O=C(O)CCN1CCC2(CC1)COc1cc(OCc3c(Cl)cccc3Cl)ccc12 [Compound 29, 3-{6-[(2,6-Dichlorophenyl)methoxy]-2H-spiro[1-benzofuran-3,4′-piperidine]-1′-yl}propanoic acid hydrochloride]
S1P5 pEC50 (human S1P5 receptor): 7
EC50 (human S1P1 [2]): > 10 µM
EC50 (human S1P3 receptor): > 31.6 µM

SMILES: CC(C)c1cccc(Cl)c1COc1ccc2c(c1)OCC21CCN(CCCC(=O)O)CC1 [Compound 127, 4-(6-{[2-Chloro-6-(propan-2-yl)phenyl]methoxy}-2H-spiro[1-benzofuran-3,4′-piperidine]-1′-yl)butanoic acid hydrochloride]
S1P5 pEC50 (human S1P5 receptor): 6.9
EC50 (human S1P1 [2]; [4]): 7.94 µM
EC50 (human S1P3 receptor): 2.51 µM

SMILES: O=C(O)CCCN1CCC2(CC1)COc1cc(OCc3c(Cl)cccc3C3CC3)ccc12 [Compound 121, 4-{6-[(2-Chloro-6-cyclopropylphenyl)methoxy]-2H-spiro[1-benzofuran-3,4′-piperidine]-1′-yl}butanoic acid hydrochloride]
S1P5 pEC50 (human S1P5 receptor): 7.1
EC50 (human S1P1 [2]; [4]): 5.01 µM
EC50 (human S1P3 receptor): > 10 µM

SMILES: O=C(O)CCN1CCC2(CC1)COc1cc(OCc3c(Cl)cccc3Cl)c(F)cc12 [Compound 289, 3-{6-[(2,6-Dichlorophenyl)methoxy]-5-fluoro-2H-spiro[1-benzofuran-3,4′-piperidine]-1′-yl}propanoic acid]
S1P5 pEC50 (human S1P5 receptor): 7.5
EC50 (human S1P1 [2]; [4]): > 31.6 µM
EC50 (human S1P3 receptor): > 10 µM

S1P5 pEC50 (human S1P5 receptor): 7.1
EC50 (human S1P1 [2]; [4]): > 31.6 µM
EC50 (human S1P3 receptor): > 10 µM
SMILES: O=C(O)CCN1CCCC2(COc3cc(OCc4c(Cl)cccc4Cl)ccc32)C1 (stereo not shown) [Compound 321, 3-{6-[(2,6-Dichlorophenyl)methoxy]-2H-spiro[1-benzofuran-3,3′-piperidine]-1′-yl}propanoic acid hydrochloride]

SMILES: CCc1cccc(Cl)c1COc1ccc2c(c1F)OCC21CCN(CCC(=O)O)CC1 [Compound 136, 3-{6-[(2-Chloro-6-ethylphenyl)methoxy]-7-fluoro-2H-spiro[1-benzofuran-3,4′-piperidine]-1′-yl}propanoic acid hydrochloride]
S1P5 pEC50 (human S1P5 receptor): 8
EC50 (human S1P1 [2]; [4]): 1.26 µM
EC50 (human S1P3 receptor): > 10 µM

SMILES: O=C(O)CCCN1CCC2(CC1)COc1cc(OCc3c(Cl)cccc3Cl)ccc12 [Compound 128, 4-{6-[(2,6-Dichlorophenyl)methoxy]-2H-spiro[1-benzofuran-3,4′-piperidine]-1′-yl}butanoic acid hydrochloride]
S1P5 pEC50 (human S1P5 receptor): 7.6
EC50 (human S1P1 [1]; [3]): > 3.16 µM
EC50 (human S1P3 receptor): > 10 µM

SMILES: O=C(O)CCN1CCC2(CC1)COc1cc(/C=C/c3ccccc3F)ccc12 [Compound 171, 3-{6-[(E)-2-(2-Fluorophenyl)ethenyl]-2H-spiro[1-benzofuran-3,4′-piperidine]-1′-yl}propanoic acid hydrochloride]
S1P5 pEC50 (human S1P5 receptor): 6.5
EC50 (human S1P1 [1]; [3]): > 3.16 µM
EC50 (human S1P3 receptor): > 10 µM
